Patent US20040219202A1, “Pharmaceutical composition comprising lipids comprising a polar and a nonpolar moiety” (priority 2001, published 2004)

Assays:
[1] = target: DNA; details: read-out: apparent DNA dissociation constant; cited from earlier work
[2] = target: T1, DNA topoisomerase I (Homo sapiens, UniProt P11387); details: cited from earlier work
T1 sequence (P11387 1-765): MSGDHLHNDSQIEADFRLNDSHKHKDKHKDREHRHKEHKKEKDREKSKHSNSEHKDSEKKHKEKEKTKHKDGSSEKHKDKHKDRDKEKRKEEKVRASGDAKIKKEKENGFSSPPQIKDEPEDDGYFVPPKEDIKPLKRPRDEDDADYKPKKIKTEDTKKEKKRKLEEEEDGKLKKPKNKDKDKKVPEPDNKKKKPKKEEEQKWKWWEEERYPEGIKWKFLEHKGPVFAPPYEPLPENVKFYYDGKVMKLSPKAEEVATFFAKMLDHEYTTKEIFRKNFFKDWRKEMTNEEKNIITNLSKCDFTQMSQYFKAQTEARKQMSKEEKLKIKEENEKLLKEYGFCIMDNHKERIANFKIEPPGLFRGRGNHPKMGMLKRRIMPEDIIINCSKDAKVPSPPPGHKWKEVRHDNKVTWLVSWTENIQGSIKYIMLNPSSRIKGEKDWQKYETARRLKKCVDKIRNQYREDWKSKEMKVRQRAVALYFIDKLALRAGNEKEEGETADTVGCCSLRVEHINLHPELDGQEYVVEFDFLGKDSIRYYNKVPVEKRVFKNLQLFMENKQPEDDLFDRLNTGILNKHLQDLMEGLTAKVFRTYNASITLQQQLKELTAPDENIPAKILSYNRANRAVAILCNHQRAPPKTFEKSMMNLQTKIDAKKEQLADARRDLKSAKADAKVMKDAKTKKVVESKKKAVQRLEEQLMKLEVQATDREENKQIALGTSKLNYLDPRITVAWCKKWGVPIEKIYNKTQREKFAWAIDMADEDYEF

[3] = target: T2, DNA polymerase α (Homo sapiens, UniProt P09884); details: cited from earlier work
T2 sequence (P09884 1-1462): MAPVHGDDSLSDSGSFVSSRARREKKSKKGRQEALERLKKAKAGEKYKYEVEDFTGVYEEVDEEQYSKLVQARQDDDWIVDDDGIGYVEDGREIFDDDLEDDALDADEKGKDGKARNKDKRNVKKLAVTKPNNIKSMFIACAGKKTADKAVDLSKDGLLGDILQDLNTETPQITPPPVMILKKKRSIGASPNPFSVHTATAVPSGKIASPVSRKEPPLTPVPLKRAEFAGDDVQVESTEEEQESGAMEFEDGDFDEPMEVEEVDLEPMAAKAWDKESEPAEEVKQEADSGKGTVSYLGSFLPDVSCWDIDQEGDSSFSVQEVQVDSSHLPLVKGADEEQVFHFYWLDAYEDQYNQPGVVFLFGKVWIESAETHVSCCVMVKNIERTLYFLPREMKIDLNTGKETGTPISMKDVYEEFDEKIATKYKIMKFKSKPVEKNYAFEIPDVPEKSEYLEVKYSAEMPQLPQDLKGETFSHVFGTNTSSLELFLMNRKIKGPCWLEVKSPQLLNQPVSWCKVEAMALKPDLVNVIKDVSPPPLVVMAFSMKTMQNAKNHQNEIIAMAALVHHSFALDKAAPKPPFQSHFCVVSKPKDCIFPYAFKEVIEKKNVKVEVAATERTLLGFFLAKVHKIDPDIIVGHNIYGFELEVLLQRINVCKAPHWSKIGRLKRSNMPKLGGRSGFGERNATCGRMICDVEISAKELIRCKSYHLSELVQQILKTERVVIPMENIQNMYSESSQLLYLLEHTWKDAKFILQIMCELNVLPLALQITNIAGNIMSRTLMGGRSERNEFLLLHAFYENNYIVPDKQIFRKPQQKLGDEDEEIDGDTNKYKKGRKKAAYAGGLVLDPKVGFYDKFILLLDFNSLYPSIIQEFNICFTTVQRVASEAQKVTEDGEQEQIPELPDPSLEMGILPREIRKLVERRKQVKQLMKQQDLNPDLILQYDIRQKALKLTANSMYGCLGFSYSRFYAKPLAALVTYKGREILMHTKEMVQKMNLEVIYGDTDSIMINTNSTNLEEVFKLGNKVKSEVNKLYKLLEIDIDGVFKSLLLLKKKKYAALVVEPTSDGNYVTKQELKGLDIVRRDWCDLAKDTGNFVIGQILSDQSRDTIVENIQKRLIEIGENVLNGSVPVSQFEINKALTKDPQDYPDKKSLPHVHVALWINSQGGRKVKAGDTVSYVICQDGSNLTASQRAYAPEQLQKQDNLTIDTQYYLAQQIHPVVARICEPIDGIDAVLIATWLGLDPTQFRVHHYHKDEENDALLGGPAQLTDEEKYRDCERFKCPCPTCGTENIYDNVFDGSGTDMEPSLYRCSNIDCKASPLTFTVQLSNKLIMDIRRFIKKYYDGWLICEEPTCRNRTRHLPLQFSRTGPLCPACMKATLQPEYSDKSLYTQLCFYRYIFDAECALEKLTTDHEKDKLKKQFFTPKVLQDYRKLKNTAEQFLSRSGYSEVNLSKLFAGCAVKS

[4] = test system: Fe(III)-LOX; details: cited from earlier work
[5] = target: T3, cytochrome P4504A1 (Rattus norvegicus, UniProt P08516); details: cited from earlier work
T3 sequence (P08516 1-509): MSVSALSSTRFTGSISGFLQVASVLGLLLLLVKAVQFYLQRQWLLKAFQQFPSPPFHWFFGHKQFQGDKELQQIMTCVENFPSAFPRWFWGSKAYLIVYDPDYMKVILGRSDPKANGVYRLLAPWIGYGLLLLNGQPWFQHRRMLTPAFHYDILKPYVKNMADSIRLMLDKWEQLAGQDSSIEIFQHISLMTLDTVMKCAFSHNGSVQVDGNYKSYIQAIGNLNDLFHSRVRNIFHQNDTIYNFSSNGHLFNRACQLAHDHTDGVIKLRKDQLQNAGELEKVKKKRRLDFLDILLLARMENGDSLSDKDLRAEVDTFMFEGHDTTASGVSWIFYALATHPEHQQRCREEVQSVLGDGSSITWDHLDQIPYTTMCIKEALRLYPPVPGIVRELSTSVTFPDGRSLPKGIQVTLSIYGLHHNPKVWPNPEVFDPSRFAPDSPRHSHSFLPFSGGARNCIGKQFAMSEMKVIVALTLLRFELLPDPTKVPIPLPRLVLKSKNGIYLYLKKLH

[6] = test system: ethanolamine-specific phospholipid base exchange reaction; details: rat liver microsomes; cited from earlier work
[7] = test system: hepatic glutathione S-transferases; details: cited from earlier work
[8] = Net charge of cationic lipid; assay type: physicochemical; details: pH 7.4
Description: The monoacetylenic analogues of DOPC, DOPE, DODAP and DOTAP were synthesised as described above. Standard lipids for comparisons (DOPC, DOPE and DOTAP (chloride salt)) were purchased from Sigma-Aldrich, Poole, Dorset, UK. Our invention the cationic, cholesterol-based lipid N^1-cholesteryloxycarbonyl-3,7-diazanononane-1,9-diamine (CDAN)—net charge=+1.6 at pH 7.4.CDAN (below) was synthesised by our group previously,^22 and is now available in a 1:1 molar ratio formulation with DOPE as Trojene™ (Avanti Polar Lipids, Inc., Alabaster, Ala., USA). [drawing 40]

[9] = target: T4, Cytochrome P4504A4 (CYP4A4) (Oryctolagus cuniculus, UniProt P10611); details: cited from earlier work
T4 sequence (P10611 5-510): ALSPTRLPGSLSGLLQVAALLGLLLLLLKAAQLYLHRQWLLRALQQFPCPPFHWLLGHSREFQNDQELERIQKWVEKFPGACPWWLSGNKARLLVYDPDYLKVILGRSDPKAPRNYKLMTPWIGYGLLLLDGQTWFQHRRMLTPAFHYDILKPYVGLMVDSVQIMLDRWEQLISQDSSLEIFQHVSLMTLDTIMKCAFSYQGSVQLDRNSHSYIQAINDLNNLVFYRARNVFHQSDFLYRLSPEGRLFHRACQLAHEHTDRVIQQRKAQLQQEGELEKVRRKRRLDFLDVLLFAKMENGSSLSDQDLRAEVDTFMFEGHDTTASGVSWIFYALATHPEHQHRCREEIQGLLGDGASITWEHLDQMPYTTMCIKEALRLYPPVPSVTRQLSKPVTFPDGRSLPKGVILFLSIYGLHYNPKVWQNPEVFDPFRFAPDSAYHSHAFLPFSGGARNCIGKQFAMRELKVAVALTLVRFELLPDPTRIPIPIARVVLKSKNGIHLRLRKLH

[10] = test system: C. tomentosicollis eggs; details: cited from earlier work
[11] = test system: cyclo-oxygenase; details: cited from earlier work
[12] = target: T5, 5-lipoxygenase (Homo sapiens, UniProt P09917); details: cited from earlier work
T5 sequence (P09917 1-674): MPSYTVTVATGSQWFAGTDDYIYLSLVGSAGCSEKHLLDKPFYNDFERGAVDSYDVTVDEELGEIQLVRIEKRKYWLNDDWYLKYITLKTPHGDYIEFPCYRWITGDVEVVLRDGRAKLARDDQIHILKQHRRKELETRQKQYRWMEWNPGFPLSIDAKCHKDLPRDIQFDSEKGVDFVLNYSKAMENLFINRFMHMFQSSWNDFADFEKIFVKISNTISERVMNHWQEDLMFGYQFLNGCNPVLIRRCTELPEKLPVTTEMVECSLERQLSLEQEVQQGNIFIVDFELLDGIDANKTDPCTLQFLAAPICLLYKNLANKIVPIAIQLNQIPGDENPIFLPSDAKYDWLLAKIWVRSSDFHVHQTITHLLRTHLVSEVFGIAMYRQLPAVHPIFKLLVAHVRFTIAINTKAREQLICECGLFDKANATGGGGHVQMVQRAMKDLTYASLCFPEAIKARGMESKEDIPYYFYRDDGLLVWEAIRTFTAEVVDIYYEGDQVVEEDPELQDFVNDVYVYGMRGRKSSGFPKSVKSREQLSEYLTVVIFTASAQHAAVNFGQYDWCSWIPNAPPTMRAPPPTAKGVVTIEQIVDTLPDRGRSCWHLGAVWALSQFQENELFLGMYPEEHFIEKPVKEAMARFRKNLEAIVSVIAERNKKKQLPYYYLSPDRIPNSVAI

In the case of `CCCCCCCCC#CCCCCCCCC(=O)O` [Octadeca-9-ynoic acid, octadeca-9-ynoic acid], the Kd [1] is listed as 1800 µM, the “DNA topoisomerase I-mediated relaxation of a supercoiled plasmid DNA” value [2] is listed as “does not inhibit” and the “topisomerase I-mediated DNA filter binding” value [2] is listed as “inhibits”. The “Inhibition of DNA polymerase α” value [3] was “weakly inhibitory”.
In the case of `CCCCCC#CCC#CCCCCCCCC(=O)O` [octadeca-9,12-diynoic acid], the “Inactivation of Fe(III)-LOX” value [4] is given as “irreversibly inactivates”.
For `C#CCCCCCCCCC(=O)O` [Undeca-10-ynoic acid], the “Inhibition of cytochrome P4504A1” value [5] is given as “inhibitor” and the “Ethanolamine-specific phospholipid base exchange reaction” value [6] is given as “inhibits”.
For `CCCCCCCCC#CCC#CCC#CCCCC(=O)O` [eicosa-5,8,11-triynoic acid], the “Inhibition of mammalian hepatic glutathione S-transferases” value [7] is given as “inhibits”.
With `CC(C)CCC[C@@H](C)[C@H]1CC[C@H]2[C@@H]3CC=C4C[C@@H](OC(=O)NCCNCCCNCCN)CC[C@]4(C)[C@H]3CC[C@]12C` [CDAN, N^1-cholesteryloxycarbonyl-3,7-diazanononane-1,9-diamine] the net charge [8] was “+1.6”.
For `C#CCCCCCCCCCCCCCCCC(=O)O` [Octadeca-17-ynoic acid], the “Inhibition of the substrate-binding pocket of CYP4A4” value [9] is listed as “effective inhibitor”.
For `CCCCCCCCCCCCC#CCCCC(=O)O` [Octadeca-5-ynoic acid], the “Hatching of C. tomentosicollis eggs” value [10] is given as “inhibits the hatching”.
In the case of `CCCCCC#CC#CC#CCCCCCCC(=O)O` [octadeca-8,10,12-triynoic acid], the Inhibition of cyclo-oxygenase [11] is listed as “potent inhibitors” and the “Inhibition of 5-lipoxygenase” value [12] is listed as “weak inhibitors”.
